# Source: patent publication US20240208994A1, “PLASMA KALLIKREIN INHIBITORS” (Merck Sharp & Dohme LLC, priority 2021, published 2024)
# Assays:
# human factor XIa = human factor XIa (Homo sapiens, UniProt P03951); experiment: Factor XIa Assay; assay type: biochemical; conditions: human factor XIa 0.04 nM, 30 min pre-incubation at 25° C., substrate GPR-AFC, pH 7.4, 60 min incubation; read-out: FXIa IC50
# Protocol: (§1) The effectiveness of a compound of the present invention as an inhibitor of Coagulation factor XIa can be determined using a relevant purified serine protease, and an appropriate synthetic substrate. The rate of hydrolysis of the chromogenic or fluorogenic substrate by the relevant serine protease was measured both in the absence and presence of compounds of the present invention. Assays were conducted at rt or at 37° C. […] A decrease in the rate of fluorescence change in the presence of inhibitor is indicative of enzyme inhibition. Such methods are known to one skilled in the art. The results of this assay are expressed as the half-maximal inhibitory concentrations (IC50), or the inhibitory constant, Ki.
# Compounds were pre-incubated for 30 min at 25° C. with human (0.04 nM) factor XIa in 50 mM HEPES buffer with 150 mM sodium chloride, 5 mM calcium chloride, 0.1% PEG 8000, pH 7.4. factor XIa enzymatic activity was determined by addition of the substrate glycine-proline-arginine-7-amido-4-trifluoromethylcoumarin (GPR-AFC) and measurement of the fluorescence at 400/505 nm after a 60 min incubation at 25° C. The % inhibition for each data point was calculated from the data and analyzed using the log (inhibitor) vs. response four parameters equation to determine the half-maximal inhibitory concentrations (IC50). The IC50 were converted to equilibrium inhibitory constants (Ki) using the Cheng-Prusoff equation.
# Human plasma kallikrein = molecular target: T1, Human plasma kallikrein (Homo sapiens, UniProt P03952); experiment: Plasma Kallikrein Assay; assay type: biochemical; conditions: purified Human plasma kallikrein 0.5 nM, substrate Acetyl-K-P-R-AFC, HEPES pH 7.4, fluorescence 405 Ex/510 Em; read-out: PKal IC50
# T1 construct: yields a heavy chain (371 amino acids) and a light chain (248 amino acids); purchased Enzyme Research Laboratories
# Protocol: as §1, with “plasma kallikrein” for “Coagulation factor XIa”
# Plasma kallikrein determinations were made in 50 mM HEPES buffer at pH 7.4 containing 150 mM NaCl, 5 mM CaCl2), and 0.1% PEG 8000 (polyethylene glycol: Fisher Scientific). Determinations were made using purified Human plasma kallikrein at a final concentration of 0.5 nM (Enzyme Research Laboratories) and the synthetic substrate, Acetyl-K-P-R-AFC (Sigma #C6608) at a concentration of […].
# Activity assays were performed by diluting a stock solution of substrate at least tenfold to a final concentration ≤0.2 Km into a solution containing enzyme or enzyme equilibrated with inhibitor. Times required to achieve equilibration between enzyme and inhibitor were determined in control experiments. The reactions were performed under linear progress curve conditions and fluorescence increase measured at 405 Ex/510 Em nm. Values were converted to percent inhibition of the control reaction (after subtracting 100% Inhibition value). IC50 was determined by inflection point from a four parameter logistic curve fit. Ki was calculated using the Cheng Prusoff equation, Ki=IC50/(1+([S]/Km)).
# T1 sequence (P03952 391-638 limits assumed): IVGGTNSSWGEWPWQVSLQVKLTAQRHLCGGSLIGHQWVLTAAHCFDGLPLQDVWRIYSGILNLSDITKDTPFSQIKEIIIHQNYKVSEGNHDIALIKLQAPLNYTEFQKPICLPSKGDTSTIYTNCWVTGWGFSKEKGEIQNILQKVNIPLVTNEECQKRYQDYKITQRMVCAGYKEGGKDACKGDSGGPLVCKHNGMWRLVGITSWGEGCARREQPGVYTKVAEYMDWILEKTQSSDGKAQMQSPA
# T1 sequence (P03952 20-390 partner limits assumed): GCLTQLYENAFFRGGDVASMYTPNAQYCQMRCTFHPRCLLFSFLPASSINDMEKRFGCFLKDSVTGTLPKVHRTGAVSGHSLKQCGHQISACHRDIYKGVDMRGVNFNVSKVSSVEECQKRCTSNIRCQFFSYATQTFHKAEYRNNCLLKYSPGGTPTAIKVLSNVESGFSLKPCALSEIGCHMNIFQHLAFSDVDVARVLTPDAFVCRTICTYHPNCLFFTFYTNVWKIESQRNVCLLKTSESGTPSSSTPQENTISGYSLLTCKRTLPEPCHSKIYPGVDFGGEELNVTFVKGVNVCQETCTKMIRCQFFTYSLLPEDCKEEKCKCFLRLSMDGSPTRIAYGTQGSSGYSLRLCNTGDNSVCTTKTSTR
# Chain of human factor XIa (P03951 388-625 limits assumed): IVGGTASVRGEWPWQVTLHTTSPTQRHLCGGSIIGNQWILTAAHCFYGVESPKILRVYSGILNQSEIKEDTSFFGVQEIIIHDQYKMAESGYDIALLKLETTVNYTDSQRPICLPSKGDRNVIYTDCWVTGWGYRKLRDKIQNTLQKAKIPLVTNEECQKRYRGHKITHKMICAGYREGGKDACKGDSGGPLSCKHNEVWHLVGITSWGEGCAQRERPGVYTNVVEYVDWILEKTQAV
# Chain of human factor XIa (P03951 19-387 partner limits assumed): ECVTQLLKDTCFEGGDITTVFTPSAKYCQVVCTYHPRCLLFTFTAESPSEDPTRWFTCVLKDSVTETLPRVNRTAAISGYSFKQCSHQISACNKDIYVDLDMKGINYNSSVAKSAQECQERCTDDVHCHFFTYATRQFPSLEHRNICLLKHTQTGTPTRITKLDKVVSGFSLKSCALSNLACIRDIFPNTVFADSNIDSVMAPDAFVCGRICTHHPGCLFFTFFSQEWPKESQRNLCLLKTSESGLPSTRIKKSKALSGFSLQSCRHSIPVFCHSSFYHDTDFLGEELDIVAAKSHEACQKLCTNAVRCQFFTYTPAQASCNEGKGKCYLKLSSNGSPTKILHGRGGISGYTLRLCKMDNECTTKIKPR
Compound,IC50 (human factor XIa),IC50 (Human plasma kallikrein)
"Nc1cc(-c2ccccc2Cl)nn1CC(=O)N1CC[C@@]2(C1)OC(=O)Nc1ccc(Cl)c(F)c12 [Example 43, (R)-1′-(2-(5-Amino-3-(2-chlorophenyl)-1H-pyrazol-1-yl)acetyl)-6-chloro-5-fluorospiro[benzo[d][1,3]oxazine-4,3′-pyrrolidin]-2(1H)-one]",187 nM,3.2 nM
"Nc1cc(-c2cncc(Br)c2)nn1CC(=O)N1CC[C@@]2(C1)OC(=O)Nc1ccc(Cl)c(F)c12 [Example 44, (R)-1′-(2-(5-Amino-3-(5-bromopyridin-3-y1)-1H-pyrazol-1-yl)acetyl)-6-chloro-5-fluorospiro[benzo[d][1,3]oxazine-4,3'-pyrrolidin]-2(1H)-one]",389 nM,11.2 nM
"Cc1ccc(-c2cc(N)n(CC(=O)N3CC[C@@]4(C3)OC(=O)Nc3ccc(Cl)c(F)c34)n2)n1C [Example 45, (R)-1′-(2-(5-Amino-3-(1,5-dimethyl-1H-pyrrol-2-y1)-1H-pyrazol-1-yl)acetyl)-6-chloro-5-fluorospiro[benzo[d][1,3]oxazine-4,3′-pyrrolidin]-2(1H)-one]",2760 nM,40.3 nM
"Nc1cc(-c2ccc(F)cc2F)nn1CC(=O)N1CC[C@@]2(C1)OC(=O)Nc1ccc(Cl)c(F)c12 [Example 46, (R)-1′-(2-(5-Amino-3-(2,4-difluorophenyl)-1H-pyrazol-1-yl)acetyl)-6-chloro-5-fluorospiro[benzo[d][1,3]oxazine-4,3′-pyrrolidin]-2(1H)-one]",263 nM,5 nM
"Nc1cc(-c2ccc(F)c(F)c2)nn1CC(=O)N1CC[C@@]2(C1)OC(=O)Nc1ccc(Cl)c(F)c12 [Example 47, (R)-1′-(2-(5-Amino-3-(3,4-difluorophenyl)-1H-pyrazol-1-yl)acetyl)-6-chloro-5-fluorospiro[benzo[d][1,3]oxazine-4,3′-pyrrolidin]-2(1H)-one]",739 nM,14.3 nM
"Nc1cc(-c2cc3ccccc3o2)nn1CC(=O)N1CC[C@@]2(C1)OC(=O)Nc1ccc(Cl)c(F)c12 [Example 48, (R)-1′-(2-(5-Amino-3-(benzofuran-2-y1)-1H-pyrazol-1-yl)acetyl)-6-chloro-5-fluorospiro[benzo[d][1,3]oxazine-4,3′-pyrrolidin]-2(1H)-one]",1400 nM,7.8 nM
"Cn1ncc(-c2cc(N)n(CC(=O)N3CC[C@@]4(C3)OC(=O)Nc3ccc(Cl)c(F)c34)n2)c1C(F)(F)F [Example 49, (R)-1′-(2-(5-Amino-1′-methyl-5′-(trifluoromethyl)-1H,1′H-[3,4′-bipyrazol]-1-yl)acetyl)-6-chloro-5-fluorospiro[benzo[d][1,3]oxazine-4,3′-pyrrolidin]-2(1H)-one]",184 nM,1.4 nM
"Nc1cc(-c2ccccc2C(F)(F)F)nn1CC(=O)N1CC[C@@]2(C1)OC(=O)Nc1ccc(Cl)c(F)c12 [Example 50, (R)-1′-(2-(5-Amino-3-(2-(trifluoromethyl)phenyl)-1H-pyrazol-1-yl)acetyl)-6-chloro-5-fluorospiro[benzo[d][1,3]oxazine-4,3′-pyrrolidin]-2(1H)-one]",422 nM,5.4 nM
"COc1cccc(OC)c1-c1cc(N)n(CC(=O)N2CC[C@@]3(C2)OC(=O)Nc2ccc(Cl)c(F)c23)n1 [Example 51, (R)-1′-(2-(5-Amino-3-(2,6-dimethoxyphenyl)-1H-pyrazol-1-yl)acetyl)-6-chloro-5-fluorospiro[benzo[d][1,3]oxazine-4,3′-pyrrolidin]-2(1H)-one]",1770 nM,23.5 nM
"Nc1cc(C2CCCCC2)nn1CC(=O)N1CC[C@@]2(C1)OC(=O)Nc1ccc(Cl)c(F)c12 [Example 52, (R)-1′-(2-(5-Amino-3-cyclohexy1-1H-pyrazol-1-yl)acetyl)-6-chloro-5-fluorospiro[benzo[d][1,3]oxazine-4,3′-pyrrolidin]-2(1H)-one]",426 nM,20.7 nM
"CC1(C)C(c2cc(N)n(CC(=O)N3CC[C@@]4(C3)OC(=O)Nc3ccc(Cl)c(F)c34)n2)C1(C)C [Example 53, (R)-1′-(2-(5-Amino-3-(2,2,3,3-tetramethylcyclopropyl)-1H-pyrazol-1-yl)acetyl)-6-chloro-5-fluorospiro[benzo[d][1,3]oxazine-4,3′-pyrrolidin]-2(1H)-one]",320 nM,11.5 nM
"Cc1ccccc1-c1cc(N)n(CC(=O)N2CC[C@@]3(C2)OC(=O)Nc2ccc(Cl)c(F)c23)n1 [Example 54, (R)-1′-(2-(5-Amino-3-(o-tolyl)-1H-pyrazol-1-yl)acetyl)-6-chloro-5-fluorospiro[benzo[d][1,3]oxazine-4,3′-pyrrolidin]-2(1H)-one]",289 nM,5.1 nM
"Nc1cc(-c2ccccc2OC(F)(F)F)nn1CC(=O)N1CC[C@@]2(C1)OC(=O)Nc1ccc(Cl)c(F)c12 [Example 55, (R)-1′-(2-(5-Amino-3-(2-(trifluoromethoxy)phenyl)-1H-pyrazol-1-yl)acetyl)-6-chloro-5-fluorospiro[benzo[d][1,3]oxazine-4,3′-pyrrolidin]-2(1H)-one]",287 nM,2.5 nM
"Nc1cc(-c2ccccc2F)nn1CC(=O)N1CC[C@@]2(C1)OC(=O)Nc1ccc(Cl)c(F)c12 [Example 56, (R)-1′-(2-(5-Amino-3-(2-fluorophenyl)-1H-pyrazol-1-yl)acetyl)-6-chloro-5-fluorospiro[benzo[d][1,3]oxazine-4,3′-pyrrolidin]-2(1H)-one]",165 nM,4.6 nM
"Nc1cc(-c2ccccc2Br)nn1CC(=O)N1CC[C@@]2(C1)OC(=O)Nc1ccc(Cl)c(F)c12 [Example 57, (R)-1′-(2-(5-Amino-3-(2-bromophenyl)-1H-pyrazol-1-yl)acetyl)-6-chloro-5-fluorospiro[benzo[d][1,3]oxazine-4,3′-pyrrolidin]-2(1H)-one]",190 nM,2.5 nM
"Nc1cc(-c2ccccc2I)nn1CC(=O)N1CC[C@@]2(C1)OC(=O)Nc1ccc(Cl)c(F)c12 [Example 58, (R)-1′-(2-(5-Amino-3-(2-iodophenyl)-1H-pyrazol-1-yl)acetyl)-6-chloro-5-fluorospiro[benzo[d][1,3]oxazine-4,3′-pyrrolidin]-2(1H)-one]",430 nM,5.7 nM
"Nc1cc(-c2c(F)cc(F)cc2F)nn1CC(=O)N1CC[C@@]2(C1)OC(=O)Nc1ccc(Cl)c(F)c12 [Example 59, (R)-1′-(2-(5-Amino-3-(2,4,6-trifluorophenyl)-1H-pyrazol-1-yl)acetyl)-6-chloro-5-fluorospiro[benzo[d][1,3]oxazine-4,3′-pyrrolidin]-2(1H)-one]",195 nM,3.7 nM
"Cc1cc(-c2cc(N)n(CC(=O)N3CC[C@@]4(C3)OC(=O)Nc3ccc(Cl)c(F)c34)n2)no1 [Example 60, (R)-1′-(2-(5-Amino-3-(5-methylisoxazol-3-y1)-1H-pyrazol-1-yl)acetyl)-6-chloro-5-fluorospiro[benzo[d][1,3]oxazine-4,3′-pyrrolidin]-2(1H)-one]",862 nM,24.3 nM
"Nc1cc(C2C3COCC32)nn1CC(=O)N1CC[C@@]2(C1)OC(=O)Nc1ccc(Cl)c(F)c12 (stereo partly drawn) [Example 61, (4R)-1′-(2-(5-Amino-3-(3-oxabicyclo[3.1.0]hexan-6-y1)-1H-pyrazol-1-yl)acetyl)-6-chloro-5-fluorospiro[benzo[d][1,3]oxazine-4,3′-pyrrolidin]-2(1H)-one]",791 nM,27.2 nM
"COc1ccccc1-c1cc(N)n(CC(=O)N2CC[C@@]3(C2)OC(=O)Nc2ccc(Cl)c(F)c23)n1 [Example 62, (R)-1′-(2-(5-Amino-3-(2-methoxyphenyl)-1H-pyrazol-1-yl)acetyl)-6-chloro-5-fluorospiro[benzo[d][1,3]oxazine-4,3′-pyrrolidin]-2(1H)-one]",505 nM,6.6 nM
